Data taken from ChEMBL document CHEMBL4049403, “Oligo-aspartic acid conjugates with benzo[c][2,6]naphthyridine-8-carboxylic acid scaffold as picomolar inhibitors of CK2” (Bioorg Med Chem, 2017).
Where a SMILES comes first, the peptide text is derived from it. The star is where a group is joined. X1 = O=C(O)c1ccc2c(c1)nc(OCCCCCCCCC(=O)*)c1ccncc12

What was measured:
[1] = molecular target: Serine/threonine-protein kinase 3 (Homo sapiens) (UniProt Q13188); test: Inhibition of human MST2 assessed as residual activity at 1 uM in presence of [33P]ATP by filter binding assay relative to control
[2] = molecular target: MAP kinase-interacting serine/threonine-protein kinase 1 (Homo sapiens) (UniProt Q9BUB5); test: Inhibition of human MNK1 assessed as residual activity at 1 uM in presence of [33P]ATP by filter binding assay relative to control
[3] = molecular target: Tyrosine-protein kinase Lck (Homo sapiens) (UniProt P06239); test: Inhibition of human Lck assessed as residual activity at 1 uM in presence of 33P-ATP by filter-binding assay relative to control
[4] = molecular target: MAP kinase-activated protein kinase 2 (Homo sapiens) (UniProt P49137); test: Inhibition of human MAPKAP-K2 assessed as residual activity at 1 uM in presence of [33P]ATP by filter binding assay relative to control
[5] = molecular target: Serine/threonine-protein kinase ULK2 (Homo sapiens) (UniProt Q8IYT8); test: Inhibition of human ULK2 assessed as residual activity at 1 uM in presence of [33P]ATP by filter binding assay relative to control
[6] = molecular target: Casein kinase I isoform delta (Homo sapiens) (UniProt P48730); test: Inhibition of human CK1delta assessed as residual activity at 1 uM in presence of [33P]ATP by filter binding assay relative to control
[7] = molecular target: Mitogen-activated protein kinase 3 (Homo sapiens) (UniProt P27361); test: Inhibition of human ERK1 assessed as residual activity at 1 uM in presence of [33P]ATP by filter binding assay relative to control
[8] = molecular target: Homeodomain-interacting protein kinase 2 (Homo sapiens) (UniProt Q9H2X6); test: Inhibition of human HIPK2 assessed as residual activity at 1 uM in presence of 33P-ATP by filter-binding assay relative to control
[9] = molecular target: Mitogen-activated protein kinase kinase kinase 1 (Homo sapiens) (UniProt Q13233); test: Inhibition of human MEKK1 assessed as residual activity at 1 uM in presence of [33P]ATP by filter binding assay relative to control
[10] = molecular target: Serine/threonine-protein kinase Chk2 (Homo sapiens) (UniProt O96017); test: Inhibition of human CHK2 assessed as residual activity at 1 uM in presence of [33P]ATP by filter binding assay relative to control
[11] = molecular target: Serine/threonine-protein kinase pim-3 (Homo sapiens) (UniProt Q86V86); test: Inhibition of human PIM3 assessed as residual activity at 1 uM in presence of [33P]ATP by filter binding assay relative to control
[12] = molecular target: Mitogen-activated protein kinase kinase kinase kinase 3 (Homo sapiens) (UniProt Q8IVH8); test: Inhibition of human MAP4K3 assessed as residual activity at 1 uM in presence of [33P]ATP by filter binding assay relative to control
[13] = molecular target: Glycogen synthase kinase-3 beta (Homo sapiens) (UniProt P49841); test: Inhibition of human GSK3beta assessed as residual activity at 1 uM in presence of 33P-ATP by filter-binding assay relative to control
[14] = molecular target: Serine/threonine-protein kinase OSR1 (Homo sapiens) (UniProt O95747); test: Inhibition of human OSR1 assessed as residual activity at 1 uM in presence of [33P]ATP by filter binding assay relative to control
[15] = molecular target: Myosin light chain kinase, smooth muscle (Homo sapiens) (UniProt Q15746); test: Inhibition of human SmMLCK assessed as residual activity at 1 uM in presence of [33P]ATP by filter binding assay relative to control
[16] = molecular target: Serine/threonine-protein kinase TBK1 (Homo sapiens) (UniProt Q9UHD2); test: Inhibition of human TBK1 assessed as residual activity at 1 uM in presence of 33P-ATP by filter-binding assay relative to control
[17] = molecular target: Mitogen-activated protein kinase 15 (Homo sapiens) (UniProt Q8TD08); test: Inhibition of human ERK8 assessed as residual activity at 1 uM in presence of 33P-ATP by filter-binding assay relative to control
Homo sapiens = organism: Homo sapiens; test: Inhibition of human PHK assessed as residual activity at 1 uM in presence of [33P]ATP by filter binding assay relative to control
[18] = molecular target: Mitogen-activated protein kinase 14 (Homo sapiens) (UniProt Q16539); test: Inhibition of human p38a MAPK assessed as residual activity at 1 uM in presence of [33P]ATP by filter binding assay relative to control
[19] = molecular target: Casein kinase II subunit alpha (Homo sapiens, UniProt P68400); test: Inhibition of CK2alpha (unknown origin) (1 to 335 residues) using 5-TAMRA-RADDSDDDDD as substrate after 30 mins by fluorescence imaging method
[20] = molecular target: Dual specificity mitogen-activated protein kinase kinase 1 (Homo sapiens) (UniProt Q02750); test: Inhibition of human MKK1 assessed as residual activity at 1 uM in presence of [33P]ATP by filter binding assay relative to control
[21] = molecular target: Serine/threonine-protein kinase PAK 5 (Homo sapiens) (UniProt Q9P286); test: Inhibition of human PAK5 assessed as residual activity at 1 uM in presence of [33P]ATP by filter binding assay relative to control
[22] = molecular target: CDK9/cyclin T1 (Homo sapiens) (UniProt O60563+P50750); test: Inhibition of human CDK9-CyclinT1 assessed as residual activity at 1 uM in presence of [33P]ATP by filter binding assay relative to control; format: protein-complex assay
[23] = molecular target: Mitogen-activated protein kinase 13 (Homo sapiens) (UniProt O15264); test: Inhibition of human P38d MAPK assessed as residual activity at 1 uM in presence of [33P]ATP by filter binding assay relative to control
[24] = molecular target: RAC-alpha serine/threonine-protein kinase (Homo sapiens) (UniProt P31749); test: Inhibition of human PKBa assessed as residual activity at 1 uM in presence of [33P]ATP by filter binding assay relative to control
[25] = molecular target: Mitogen-activated protein kinase kinase kinase 11 (Homo sapiens) (UniProt Q16584); test: Inhibition of human MLK3 assessed as residual activity at 1 uM in presence of 33P-ATP by filter-binding assay relative to control
[26] = molecular target: Rho-associated protein kinase 2 (Homo sapiens) (UniProt O75116); test: Inhibition of human ROCK2 assessed as residual activity at 1 uM in presence of [33P]ATP by filter binding assay relative to control
[27] = molecular target: Fibroblast growth factor receptor 1 (Homo sapiens) (UniProt P11362); test: Inhibition of human FGFR1 assessed as residual activity at 1 uM in presence of [33P]ATP by filter binding assay relative to control
[28] = molecular target: Serine/threonine-protein kinase 26 (Homo sapiens) (UniProt Q9P289); test: Inhibition of human MST4 assessed as residual activity at 1 uM in presence of [33P]ATP by filter binding assay relative to control

MAP kinase-interacting serine/threonine-protein kinase 1 (Homo sapiens), sequence (Q9BUB5 whole entry, looked up): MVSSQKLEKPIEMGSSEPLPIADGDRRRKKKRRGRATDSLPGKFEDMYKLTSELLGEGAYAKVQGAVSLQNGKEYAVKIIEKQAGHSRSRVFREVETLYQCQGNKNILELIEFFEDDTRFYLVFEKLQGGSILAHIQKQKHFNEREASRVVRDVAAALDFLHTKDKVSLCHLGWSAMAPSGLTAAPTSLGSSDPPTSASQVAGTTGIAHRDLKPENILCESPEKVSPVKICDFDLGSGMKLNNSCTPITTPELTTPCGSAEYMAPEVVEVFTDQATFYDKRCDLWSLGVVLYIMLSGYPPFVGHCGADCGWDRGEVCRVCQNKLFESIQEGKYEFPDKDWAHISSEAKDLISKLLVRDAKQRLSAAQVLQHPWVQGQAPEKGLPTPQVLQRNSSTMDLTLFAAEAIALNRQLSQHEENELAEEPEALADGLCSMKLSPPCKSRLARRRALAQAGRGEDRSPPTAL
Fibroblast growth factor receptor 1 (Homo sapiens), sequence (P11362 22-822 limits assumed): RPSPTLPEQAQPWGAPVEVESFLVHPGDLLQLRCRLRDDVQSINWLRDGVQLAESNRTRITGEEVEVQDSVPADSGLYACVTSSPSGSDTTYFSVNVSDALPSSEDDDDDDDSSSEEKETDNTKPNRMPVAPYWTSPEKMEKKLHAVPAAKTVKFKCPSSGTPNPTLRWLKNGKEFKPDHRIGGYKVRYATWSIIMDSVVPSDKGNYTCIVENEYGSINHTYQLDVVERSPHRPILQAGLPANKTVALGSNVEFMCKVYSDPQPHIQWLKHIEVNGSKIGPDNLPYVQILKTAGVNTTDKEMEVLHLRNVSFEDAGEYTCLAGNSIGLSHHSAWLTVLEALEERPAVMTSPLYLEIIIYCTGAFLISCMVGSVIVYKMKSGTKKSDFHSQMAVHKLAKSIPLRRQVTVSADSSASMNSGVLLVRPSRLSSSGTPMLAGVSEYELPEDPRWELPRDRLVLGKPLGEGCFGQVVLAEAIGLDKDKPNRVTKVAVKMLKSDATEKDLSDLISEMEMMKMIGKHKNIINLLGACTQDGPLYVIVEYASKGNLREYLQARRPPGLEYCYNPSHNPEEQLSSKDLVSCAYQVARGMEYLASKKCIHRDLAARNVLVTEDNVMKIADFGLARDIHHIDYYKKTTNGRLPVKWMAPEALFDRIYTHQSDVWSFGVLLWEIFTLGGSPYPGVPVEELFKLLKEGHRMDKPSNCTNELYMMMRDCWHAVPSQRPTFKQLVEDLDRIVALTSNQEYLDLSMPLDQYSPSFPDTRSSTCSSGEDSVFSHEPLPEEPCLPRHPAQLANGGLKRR
Serine/threonine-protein kinase 3 (Homo sapiens), sequence (Q13188 whole entry): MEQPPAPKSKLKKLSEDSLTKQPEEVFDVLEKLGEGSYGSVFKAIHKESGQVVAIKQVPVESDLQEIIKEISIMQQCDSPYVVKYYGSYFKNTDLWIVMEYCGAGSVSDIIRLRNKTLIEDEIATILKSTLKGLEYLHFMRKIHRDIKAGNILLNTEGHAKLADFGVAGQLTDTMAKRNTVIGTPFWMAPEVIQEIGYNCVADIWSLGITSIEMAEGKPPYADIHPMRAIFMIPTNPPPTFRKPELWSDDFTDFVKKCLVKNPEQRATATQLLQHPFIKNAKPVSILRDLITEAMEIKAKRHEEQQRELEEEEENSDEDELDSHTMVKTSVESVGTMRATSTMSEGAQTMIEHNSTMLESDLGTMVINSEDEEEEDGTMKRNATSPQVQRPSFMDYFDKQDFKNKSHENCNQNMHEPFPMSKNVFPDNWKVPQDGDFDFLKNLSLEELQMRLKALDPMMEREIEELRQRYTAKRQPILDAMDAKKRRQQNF
Serine/threonine-protein kinase OSR1 (Homo sapiens), sequence (O95747 2-527 limits assumed): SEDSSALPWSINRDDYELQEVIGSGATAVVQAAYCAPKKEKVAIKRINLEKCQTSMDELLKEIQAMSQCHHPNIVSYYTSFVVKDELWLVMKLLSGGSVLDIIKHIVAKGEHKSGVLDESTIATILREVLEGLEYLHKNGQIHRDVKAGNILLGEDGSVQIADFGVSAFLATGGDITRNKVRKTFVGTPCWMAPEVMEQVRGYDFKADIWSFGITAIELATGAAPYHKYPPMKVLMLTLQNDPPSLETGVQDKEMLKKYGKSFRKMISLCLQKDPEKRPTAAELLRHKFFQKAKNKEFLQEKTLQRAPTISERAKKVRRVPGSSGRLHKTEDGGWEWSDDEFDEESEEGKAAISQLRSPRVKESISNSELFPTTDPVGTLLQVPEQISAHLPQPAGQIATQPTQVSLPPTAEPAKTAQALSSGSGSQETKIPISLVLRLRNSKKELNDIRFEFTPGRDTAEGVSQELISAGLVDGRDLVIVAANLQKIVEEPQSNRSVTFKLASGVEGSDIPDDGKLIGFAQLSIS
Glycogen synthase kinase-3 beta (Homo sapiens), sequence (P49841 whole entry, looked up): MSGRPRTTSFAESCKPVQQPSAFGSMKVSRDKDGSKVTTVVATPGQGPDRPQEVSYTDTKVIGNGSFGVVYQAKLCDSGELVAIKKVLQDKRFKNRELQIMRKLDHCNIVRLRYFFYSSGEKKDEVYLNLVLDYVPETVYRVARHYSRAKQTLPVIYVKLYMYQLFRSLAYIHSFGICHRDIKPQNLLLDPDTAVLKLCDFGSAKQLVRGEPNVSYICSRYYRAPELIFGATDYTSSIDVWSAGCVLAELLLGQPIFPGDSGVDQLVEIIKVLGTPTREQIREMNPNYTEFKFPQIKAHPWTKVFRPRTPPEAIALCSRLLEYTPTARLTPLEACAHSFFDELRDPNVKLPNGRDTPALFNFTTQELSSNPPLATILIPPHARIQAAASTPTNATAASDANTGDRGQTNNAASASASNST
Rho-associated protein kinase 2 (Homo sapiens), sequence (O75116 whole entry, looked up): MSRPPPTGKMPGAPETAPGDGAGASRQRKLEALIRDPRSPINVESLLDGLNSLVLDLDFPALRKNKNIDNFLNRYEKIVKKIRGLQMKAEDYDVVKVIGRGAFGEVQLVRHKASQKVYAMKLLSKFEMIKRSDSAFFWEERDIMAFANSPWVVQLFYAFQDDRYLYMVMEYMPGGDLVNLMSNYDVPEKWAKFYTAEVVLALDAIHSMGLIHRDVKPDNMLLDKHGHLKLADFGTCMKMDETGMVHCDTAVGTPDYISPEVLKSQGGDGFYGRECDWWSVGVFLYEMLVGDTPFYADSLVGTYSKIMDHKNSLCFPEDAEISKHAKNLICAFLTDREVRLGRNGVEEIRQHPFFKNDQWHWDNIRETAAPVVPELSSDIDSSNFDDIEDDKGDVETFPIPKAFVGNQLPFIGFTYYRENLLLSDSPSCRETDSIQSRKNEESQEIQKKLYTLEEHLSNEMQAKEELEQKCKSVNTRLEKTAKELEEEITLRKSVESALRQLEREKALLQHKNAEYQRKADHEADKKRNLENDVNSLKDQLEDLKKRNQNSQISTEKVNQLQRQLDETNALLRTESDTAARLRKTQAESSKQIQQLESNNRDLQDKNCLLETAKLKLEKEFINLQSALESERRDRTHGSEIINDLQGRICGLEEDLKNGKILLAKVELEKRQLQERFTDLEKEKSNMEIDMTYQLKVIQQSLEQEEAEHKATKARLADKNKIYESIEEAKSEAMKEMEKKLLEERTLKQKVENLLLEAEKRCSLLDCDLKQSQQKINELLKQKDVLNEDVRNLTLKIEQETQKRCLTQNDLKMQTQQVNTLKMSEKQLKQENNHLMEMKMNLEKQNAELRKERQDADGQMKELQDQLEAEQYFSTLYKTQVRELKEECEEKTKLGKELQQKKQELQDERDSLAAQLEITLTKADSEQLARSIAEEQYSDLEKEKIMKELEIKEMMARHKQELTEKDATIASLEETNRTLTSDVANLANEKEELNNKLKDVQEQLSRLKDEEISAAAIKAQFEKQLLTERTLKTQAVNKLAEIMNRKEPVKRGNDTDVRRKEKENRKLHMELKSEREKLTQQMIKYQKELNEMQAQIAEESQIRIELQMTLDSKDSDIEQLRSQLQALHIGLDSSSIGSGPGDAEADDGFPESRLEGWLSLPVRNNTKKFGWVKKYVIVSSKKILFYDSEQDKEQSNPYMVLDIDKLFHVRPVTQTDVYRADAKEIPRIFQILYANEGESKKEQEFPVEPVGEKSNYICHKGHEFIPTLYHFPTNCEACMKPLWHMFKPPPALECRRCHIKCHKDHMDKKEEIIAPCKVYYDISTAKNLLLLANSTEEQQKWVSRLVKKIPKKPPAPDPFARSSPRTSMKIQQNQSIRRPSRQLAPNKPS
MAP kinase-activated protein kinase 2 (Homo sapiens), sequence (P49137 whole entry, looked up): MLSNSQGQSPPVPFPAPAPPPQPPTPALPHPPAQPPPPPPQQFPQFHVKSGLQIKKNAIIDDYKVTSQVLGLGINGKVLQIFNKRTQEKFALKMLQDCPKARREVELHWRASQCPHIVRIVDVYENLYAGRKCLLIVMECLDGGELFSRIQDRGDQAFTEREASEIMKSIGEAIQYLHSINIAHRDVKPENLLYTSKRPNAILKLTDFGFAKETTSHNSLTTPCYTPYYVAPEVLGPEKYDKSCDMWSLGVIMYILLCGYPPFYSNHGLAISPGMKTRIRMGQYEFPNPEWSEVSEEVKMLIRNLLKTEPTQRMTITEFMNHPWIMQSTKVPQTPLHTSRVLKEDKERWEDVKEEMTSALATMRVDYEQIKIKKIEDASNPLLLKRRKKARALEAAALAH

In the case of `NCCCC[C@H](NC(=O)[C@H](CC(=O)O)NC(=O)[C@H](CC(=O)O)NC(=O)[C@H](CC(=O)O)NC(=O)[C@H](CC(=O)O)NC(=O)[C@H](CC(=O)O)NC(=O)[C@H](CC(=O)O)NC(=O)CCCCCCCCOc1nc2cc(C(=O)O)ccc2c2cnccc12)C(=O)O` (X1-DDDDDDK-OH), the Activity [1] is reported as 92%, the Activity [2] is reported as 67% and the Activity [3] is reported as 39%. The Activity [4] was 100%, the Activity [5] was 93% and the Activity [6] was 82%. The Activity [7] was 106%, the Activity [8] was 5% and the Activity [9] was 106%. For the same molecule, the Activity [10] was 92%, the Activity [11] was 84% and the Activity [12] was 95%. The Activity [13] was 26%, the Activity [14] was 111% and the Activity [15] was 98%. For the same molecule, the Activity [16] was 34%, the Activity [17] was 10% and the Activity (Homo sapiens) was 97%. For the same molecule, the Activity [18] was 89%, the IC50 [19] was 4 nM and the Activity [20] was 86%. It also gave an Activity [21] of 97%, an Activity [22] of 108% and an Activity [23] of 109%. For the same molecule, the Activity [24] was 89%, the Activity [25] was 22% and the Activity [26] was 90%. It also gave an Activity [27] of 92% and an Activity [28] of 67%.
